# Columns and labels:
# T lymphoblastoid cells = assay: Flow cytometry analysis with annexin V-FITC, PI and F2N12S; type: cell-based, human
# Excerpt: FIG. 6: Flow cytometry analysis of T lymphoblastoid cells treated by actinomycin D. Cells were stained by annexin V-FITC, PI and F2N12S. In (a), Annexin V-FITC and PI were selectively excited at 488 nm. Cells are sorted into living, dead and apoptotic cell populations. In (b), F2N12S is selectively excited at 407 nm. Living cells are discriminated from apoptotic and necrotic cells. In (c), the PI fluorescence intensities are plotted versus the T*/N* ratio of F2N12S. Living cells are in green, apoptotic cells are in cyan and dead cells are in orange. In (d), the populations sorted using the F2N12S/PI couple were colored according to their response with the annexin V/PI couple. The wavelengths of maximal transmission and bandwidths of used filters are indicated in brackets.
# FIG. 7: Comparison of the intensiometric response of annexin V-FITC (a) with the ratiometric fluorescence response of F2N12S (b). Living, dead and apoptotic cells were identified as described in FIG. 6, by using either the annexin V-FITC/PI (a) or the F2N12S/PI (b) couple of dyes.
# FIG. 8: Comparison of the response of annexin V-FITC and F2N12S on non-treated T lymphoblastoid cells stained by annexin V-FITC, PI and F2N12S. In (a), annexin V-FITC and PI were selectively excited at 488 nm. In (b), F2N12S is selectively excited at 407 nm. Cells are sorted into living and dead cell populations.
# Human lymphoid CEM T cells were cultured in X-vivo 15 medium (Cambrex, France) at 37° C. in humidified 5% CO2 atmosphere. Cell viability was checked by trypan blue exclusion. Cells were seeded at 5×10^5 cells/ml in the presence or absence of actinomycin D (0.5 μg/ml) for 18 h. Cells were pelleted by centrifugation at 1500 rpm for 5 min and resuspended at 1×10^6 cells/ml in X-vivo 15 medium for experiments.
# For the validation of F2N12S in cell cytometry, we used a FASCARIA™ (cell sorter) (BD Biosciences, CA, USA) equipped with an argon laser (488 nm) and a diode laser (407 nm) and emission filters DF30, DF42 and DF20 centered at 530 nm, 585 nm and 610 nm, respectively. The optical pathways corresponding to the argon laser and to the diode laser are independent. Data were analyzed using the FACSDIVA™ (cell sorter) Software (BD Biosciences). The granulation, size and fluorescence intensity were recorded at a rate of ˜1000 cells per second.
# T lymphoblastoid cells were treated with actinomycin D and labeled simultaneously by FITC-labeled annexin V, propidium iodide (PI) and F2N12S. […] The emissions of FITC and PI were collected in the spectral regions of 515-545 nm and 600-620 nm, respectively. […] The emission light in this case was collected in two spectral regions: at 515-545 nm to monitor the emission of the N* band and 564-606 nm to collect the emission of the T* band (FIG. 6b). […] The second one is characterized by a high N*/T* intensity ratio (shown in red) and can be assigned to apoptotic and dead cells.
# (§1) The probe of the invention F2N12S has been combined with PI and the fluorescence intensities of PI have been represented as a function of the T*/N* ratio of F2N12S (FIG. 6c). In this case, the populations of apoptotic and dead cells are clearly discriminated by using the differences in the PI intensities. […] This conclusion was further strengthened when the populations discriminated by the F2N12S/PI couple were colored according to their response with the annexin V-FITC/PI couple (FIG. 6d).
# T lymphocytes = assay: Laser scanning confocal ratiometric imaging of T lymphocytes; type: cell-based
# Experimental: FIG. 9: Laser scanning confocal imaging of T lymphocytes stained with annexin V-FITC (a) and F2N12S (b and c). Combination of transmission and fluorescence images of cells treated with actinomycin D for 18 hours (please complete this sentence). […] Due to their low binding to annexin V, normal cells are not visualized in the fluorescence images. (b and c) Ratiometric images of normal (b) and actinomycin D-treated (c) cells stained with 0.2 μM F2N12S. […] The size of the images is 60×73.1 μm.
# FIG. 10: Time-series of confocal fluorescence ratiometric images of actinomycin D-treated T lymphocytes stained with F2N12S. The cells were treated with actinomycin D for 18 hours and then, incubated with the probe (0.2 μM) for 5 min. Images were recorded at 1 min (a), 10 min (b) and 20 min (c) post incubation. […] The size of the images is 60×73.1 μm.
# For collecting cell images, a Laser Scanning Confocal Imaging System MRC-1024 (Bio-Rad) was used. Cells in chambered cover glass were prepared by following the preparation procedure described above. The 442 nm line of a HeCd laser was used as the excitation light source. Emission was collected by using two filters: 485/30 for the N* band and 585LP for the T* band. Collected images were analyzed by the Amira 3.0 software.
# To further compare F2N12S and annexinV-derived probes, two-color ratiometric images of F2N12S-labeled cells undergoing apoptosis were recorded by laser scanning confocal microscopy and compared with intensity based images obtained using annexin V-FITC. […] Moreover, the fluorescence intensity of apoptotic cells varies considerably from cell to cell. These differences are difficult to interpret since the intensity depends on the probe concentration as well as on the size and confluence of the cells. […] According to our spectroscopy and flow cytometry data, the latter cells are apoptotic. […] Thus, unlike annexin V-FITC, these probes provide an absolute parameter, the intensity ratio, which can be calibrated, and can characterize the level of apoptosis independently of the probe/cell concentration and the excitation light intensity. In addition, the inventors have observed that in normal cells and cells on the initial steps of apoptosis, the T*/N* intensity ratio is not evenly distributed within the plasma membrane of a given cell. This may indicate an inhomogeneous lipid composition of their plasma membranes that is likely related to the presence of lipid domains.
# The inventors also follow apoptotic transformation of the plasma membrane as a function of time. Normal and actinomycin D-treated cells were stained with the corresponding probe and the fluorescence images were subsequently recorded during 20 min. […]
# HeLa cells = assay: Flow cytometry F2N12S intensity ratio in HeLa cells; type: cell-based; conditions: data not shown
# Excerpt: as §1
# [1] = actinomycin D-treated cells, probe combined with PI
substance,measurement,setting,value
"1-dodecanaminium, N-[[2-[4-Diethylaminophenyl]-3-hydroxychromon-6-yl]-methyl]-N-methyl-N-(3-sulfopropyl)-, inner salt [F2N12S]",percentage of apoptotic cells,T lymphoblastoid cells; [1],19.5%
same,percentage of dead cells,T lymphoblastoid cells; [1],48%
same,percentage of living cells,T lymphoblastoid cells; [1],32.5%
same,percentage of dead cells,T lymphoblastoid cells; non-treated T lymphoblastoid cells,5%
same,time-dependent change of the fluorescence images,"T lymphocytes; actinomycin D-treated cells, images recorded during 20 min",relatively fast change in the emission color
same,which cells are stained in fluorescence images,T lymphocytes; normal and actinomycin D-treated cells,stains both normal (FIG. 9b) and apoptotic cells (FIG. 9c) but in different colors
same,F2N12S intensity ratio values compared with T lymphoblastoid cells,HeLa cells,very similar

# From patent US7880021B2, “Compounds and kits for the detection and the quantification of cell apoptosis” (Centre National de la Recherche Scientifique (CNRS), priority 2005, dated 2011)
